Laboratory results as given in ChEMBL document CHEMBL4680162, “Synthesis and pharmacological evaluation of chlorin derivatives for photodynamic therapy of cholangiocarcinoma” (Eur J Med Chem, 2020).
Calls of active or inactive are those of the source. The rule behind the calls is not given here.

How the values were obtained:
[1] = Photodynamic antitumor activity against human QBC939 cells xenografted in BALB/c nude mouse assessed as tumor weight at 1 mg/kg, iv followed by laser light irradiation at 120 J/cm2 measured after 13 days; type: functional; conditions: time 13 day
[2] = Phototoxicity in ICR mouse assessed as tail weight at 1 mg/kg, iv followed by 10 mW/cm2 light irradiation for 10 mins at 1 day after drug challenge and measured after 1 day of light irradiation by H and E staining based microscopic analysis (reference value: 115.6 +/- 5.6 mg); type: organism-based; conditions: in vivo, 48 h, time 2 day
[3] = Phototoxicity in ICR mouse assessed as ear weight at 1 mg/kg, iv followed by 10 mW/cm2 light irradiation for 10 mins at 1 day after drug challenge and measured after 1 day of light irradiation by H and E staining based microscopic analysis (reference value: 12.4 +/- 1.5 mg); type: organism-based; conditions: in vivo, 48 h, time 2 day
[4] = Phototoxicity against human QBC939 cells assessed as reduction in cell viability irradiated with 1 J/cm2 of 650 nanometer laser light preincubated for 24 hrs in dark and measured after 24 hrs by MTT assay; type: functional, cell-based; conditions: QBC939, light or radiation study
[5] = Phototoxicity against human QBC939 cells assessed as reduction in cell viability irradiated with 2 J/cm2 of 650 nanometer laser light preincubated for 24 hrs in dark and measured after 24 hrs by MTT assay; type: functional, cell-based; conditions: QBC939, light or radiation study
QBC939 [6] = assay: Photodynamic antitumour activity against human QBC939 cells xenografted in BABL/c nude mouse assessed as increase in apoptotic cells at 1 mg/kg, iv measured after 1 day of light irradiation by TUNEL assay; type: functional, organism-based
[7] = Phototoxicity in ICR mouse assessed as neck skin weight at 1 mg/kg, iv followed by 10 mW/cm2 light irradiation for 10 mins at 1 day after drug challenge and measured after 1 day of light irradiation by H and E staining based microscopic analysis (reference value: 36.5 +/- 2.4 mg); type: organism-based; conditions: in vivo, 48 h, time 2 day
[8] = Dark toxicity in human QBC939 cells assessed as reduction in cell viability incubated under dark for 24 hrs measured after 24 hrs by MTT assay; type: cell-based; conditions: read-out: TC50
[9] = Phototoxicity in ICR mouse assessed as skin swelling at 1 mg/kg, iv followed by 10 mW/cm2 light irradiation for 10 mins at 1 day after drug challenge and measured after 1 day of light irradiation by H and E staining based microscopic analysis; type: organism-based; conditions: in vivo, 48 h, time 2 day
[10] = Phototoxicity in ICR mouse assessed as dermal inflammation 1 mg/kg, iv in presence of 10 mW/cm2 light irradiation for 10 mins at 1 day after drug challenge and measured after 1 day of light irradiation by H and E staining based microscopic analysis; type: organism-based; conditions: in vivo, 48 h, time 2 day
[11] = Phototoxicity against human QBC939 cells assessed as reduction in cell viability irradiated with 4 J/cm2 of 650 nanometer laser light preincubated for 24 hrs in dark and measured after 24 hrs by MTT assay; type: functional, cell-based; conditions: QBC939, light or radiation study
[12] = Phototoxicity in ICR mouse assessed as ear swelling at 1 mg/kg, iv followed by 10 mW/cm2 light irradiation for 10 mins at 1 day after drug challenge and measured after 1 day of light irradiation by H and E staining based microscopic analysis; type: organism-based; conditions: in vivo, 48 h, time 2 day
[13] = Phototoxicity in ICR mouse assessed as back skin weight at 1 mg/kg, iv followed by 10 mW/cm2 light irradiation for 10 mins at 1 day after drug challenge and measured after 1 day of light irradiation by H and E staining based microscopic analysis (reference value: 34.3 +/- 2.1 mg); type: organism-based; conditions: in vivo, 48 h, time 2 day
[14] = Phototoxicity in ICR mouse assessed as skin erythema at 1 mg/kg, iv followed by 10 mW/cm2 light irradiation for 10 mins at 1 day after drug challenge and measured after 1 day of light irradiation by H and E staining based microscopic analysis; type: organism-based; conditions: in vivo, 48 h, time 2 day
QBC939 [15] = assay: Photodynamic antitumor activity against human QBC939 cells xenografted in BALB/c nude mouse assessed as decrease in tumor weight at 1 mg/kg, iv under dark condition measured after 13 days; type: functional, organism-based; conditions: time 13.0 day
[16] = Induction of singlet oxygen generation in DMF solution irradiated with 650 nanometer laser light in every 1 min by ESR assay; type: functional
[17] = Induction of apoptosis in human QBC939 cells assessed as early apoptotic cells at 2 uM in presence of 2J/cm2 light irradiation measured after 2 hrs by annexin V-FITC and propidium iodide staining based flow cytometric analysis (reference value: 0.01 %); type: functional
[18] = Drug uptake in nude mouse xenografted with QBC939 cells assessed as drug level in tumor tissue at 1 mg/kg, iv measured after 8 hrs by fluorescence imaging assay; type: ADME, organism-based, Neoplasm; conditions: in vivo
[19] = Induction of apoptosis in human QBC939 cells assessed as early apoptotic cells at 2 uM in presence of 2J/cm2 light irradiation measured after 24 hrs by annexin V-FITC and propidium iodide staining based flow cytometric analysis (reference value: 0.01 %); type: functional
[20] = Induction of apoptosis in human QBC939 cells assessed as necrotic cells at 2 uM in presence of 2J/cm2 light irradiation measured after 24 hrs by annexin V-FITC and propidium iodide staining based flow cytometric analysis (reference value: 0.02 %); type: functional
[21] = Emission property of compound in DMF assessed as Q band emission wavelength by […]; type: physicochemical
[22] = Induction of apoptosis in human QBC939 cells assessed as necrotic cells at 2 uM in presence of 2J/cm2 light irradiation measured after 2 hrs by annexin V-FITC and propidium iodide staining based flow cytometric analysis (reference value: 0.02 %); type: functional
[23] = Drug localization in nucleus of human QBC939 cells at 4 uM incubated for 4 hrs in dark by Hoechst 33342 based confocal microscopic method; type: ADME, subcellular; conditions: qbc939, 4 h
[24] = Emission property of compound in DMSO assessed as Q band emission wavelength by […]; type: physicochemical
[25] = Phototoxicity in ICR mouse assessed as pathological changes 1 mg/kg, iv in presence of 10 mW/cm2 light irradiation for 10 mins at 1 day after drug challenge and measured after 1 day of light irradiation by H and E staining based microscopic analysis; type: organism-based; conditions: in vivo, 48 h, time 2 day
[26] = Induction of apoptosis in human QBC939 cells assessed as viable cells at 2 uM in presence of 2J/cm2 light irradiation measured after 2 hrs by annexin V-FITC and propidium iodide staining based flow cytometric analysis (reference value: 99.6 %); type: functional; conditions: QBC939, light or radiation study, read-out: Activity
[27] = Absorption property of the compound in DMSO assessed as Q band log absorption coefficient by UV-visible spectrophotometric method; type: physicochemical
[28] = Induction of singlet oxygen generation in DMSO assessed as bleaching rate at 10 uM under 650 nanometer light irradiation; type: functional
[29] = Drug uptake in mouse assessed as drug level in plasma at 1 mg/kg, iv measured upto 24 hrs by fluorometric method; type: ADME, organism-based; conditions: in vivo
[30] = Induction of apoptosis in human QBC939 cells assessed as viable cells at 2 uM in presence of 2J/cm2 light irradiation measured after 24 hrs by annexin V-FITC and propidium iodide staining based flow cytometric analysis (reference value: 99.6 %); type: functional; conditions: QBC939, light or radiation study, read-out: Activity
[31] = Drug localization in mitochondria of human QBC939 cells at 4 uM incubated for 4 hrs in dark by mito-tracker green based confocal microscopic method; type: ADME; conditions: qbc939, 4 h
[32] = Induction of apoptosis in human QBC939 cells assessed as necrotic cells at 2 uM by annexin V-FITC and propidium iodide staining based flow cytometric analysis; type: functional
[33] = Absorption property of the compound in DMF assessed as Q band log absorption coefficient by UV-visible spectrophotometric method; type: physicochemical
[34] = Induction of apoptosis in human QBC939 cells assessed as early apoptotic cells at 2 uM by annexin V-FITC and propidium iodide staining based flow cytometric analysis (reference value: 0.01 %); type: functional
[35] = Absorption property of compound in poly-oxyethylene castor oil and PBS assessed as Q band log absorption coefficient by UV-visible spectrophotometric method; type: physicochemical; conditions: buffer
[36] = Induction of apoptosis in human QBC939 cells assessed as late apoptotic cells at 2 uM by annexin V-FITC and propidium iodide staining based flow cytometric analysis; type: functional
[37] = Drug uptake in human QBC939 cells at 4 uM by fluorescence spectrophotometer analysis; type: ADME, cell-based; conditions: qbc939, 4 µM
[38] = Absorption property of compound in poly-oxyethylene castor oil and PBS assessed as Q band maximum absorption wavelength by UV-visible spectrophotometric method; type: physicochemical; conditions: buffer
[39] = Absorption property of the compound in DMF assessed as Q band maximum absorption wavelength by UV-visible spectrophotometric method; type: physicochemical
[40] = Induction of apoptosis in human QBC939 cells assessed as viable cells at 2 uM by annexin V-FITC and propidium iodide staining based flow cytometric analysis (reference value: 99.99 %); type: functional; conditions: read-out: Activity
[41] = Induction of apoptosis in human QBC939 cells assessed as late apoptotic cells at 2 uM in presence of 2J/cm2 light irradiation measured after 24 hrs by annexin V-FITC and propidium iodide staining based flow cytometric analysis (reference value: 0.01 %); type: functional
[42] = Drug uptake in nude mouse xenografted with QBC939 cells assessed as drug level in tumor tissue at 1 mg/kg, iv measured after 24 hrs by fluorescence imaging assay; type: ADME, organism-based, Neoplasm; conditions: in vivo
[43] = Emission property of compound in poly-oxyethylene castor oil and PBS assessed as Q band emission wavelength by […]; type: physicochemical; conditions: buffer
[44] = Induction of apoptosis in human QBC939 cells assessed as late apoptotic cells at 2 uM in presence of 2J/cm2 light irradiation measured after 2 hrs by annexin V-FITC and propidium iodide staining based flow cytometric analysis (reference value: 0.01 %); type: functional
[45] = Drug localization in lysosome of human QBC939 cells at 4 uM incubated for 4 hrs in dark by lyso-tracker blue based confocal microscopic method; type: ADME, subcellular; conditions: qbc939, 4 h
[46] = Absorption property of the compound in DMSO assessed as Q band maximum absorption wavelength by UV-visible spectrophotometric method; type: physicochemical

Compound: Oc1cccc(-c2c3nc(c(-c4cccc(O)c4)c4ccc([nH]4)c(-c4cccc(O)c4)c4nc(c(-c5cccc(O)c5)c5ccc2[nH]5)CC4)C=C3)c1 [TEMOPORFIN]
- Activity [1]: 35%
- Activity [2]: 120.4 mg
- Activity [3]: 15.6 mg
- IC50 [4]: 2.96 µM
- IC50 [5]: 1.46 µM
- Activity (QBC939 [6]): Active
- Activity [7]: 42.7 mg
- CC50 at 48 h [8]: 6.08 µM
- Activity [9]: Toxic
- Activity [10]: Toxic
- IC50 [11]: 0.63 µM
- Activity [12]: Toxic
- Activity [13]: 39.2 mg
- Activity [14]: Toxic
- Activity (QBC939 [15]): inactive

Compound: COC(=O)C1(C(=O)NCCO)C2c3nc(c(-c4ccccc4)c4ccc([nH]4)c(-c4ccccc4)c4nc(c(-c5ccccc5)c5ccc([nH]5)c3-c3ccccc3)C=C4)C21 (configuration not stated)
- Activity [16]: Active
- Activity [1]: 17%
- Activity [2]: 114.9 mg
- Activity [17]: 2.1%
- Drug uptake [18]: Active
- Activity [19]: 19.8%
- Activity [3]: 13.2 mg
- Activity [20]: 9.7%
- Activity [21]: 652 nm
- Activity [22]: 17.07%
- Drug uptake [23]: Not Active
- Activity [24]: 650 nm
- IC50 [4]: 3.41 µM
- Activity [25]: Non-Toxic
- viability at 2 µM [26]: 75.9%
- Activity [27]: 4
- Activity [28]: Active
- Drug uptake [29]: Active
- IC50 [5]: 1.92 µM
- viability at 2 µM [30]: 25.6%
- Drug uptake [31]: Active
- Activity [32]: 0.96%
- Activity (QBC939 [6]): Active
- Activity [7]: 38.1 mg
- Activity [33]: 4.03
- Activity [34]: 1.65%
- Activity [35]: 3.34
- Activity [36]: 2.32%
- Drug uptake [37]: Active
- CC50 at 48 h [8]: > 8 µM
- Activity [38]: 650 nm
- Activity [39]: 652 nm
- viability at 2 µM [40]: 95.1%
- IC50 [11]: 1.17 µM
- Activity [41]: 44.9%
- Activity [13]: 35.3 mg
- Drug uptake [42]: Active
- Activity (QBC939 [15]): inactive
- Activity [43]: 655 nm
- Activity [44]: 4.9%
- Drug uptake [45]: Active
- Activity [46]: 654 nm
